{
  "source": "patent US20030039697A1",
  "about": "“Matrices containing nitric oxide donors and reducing agents and their use” (priority 2002, published 2003)",
  "tested_on": "E. coli",
  "format": "cell-based",
  "data": [
    {"smiles": "N[C@@H](CCC(=O)N[C@@H](CSN=O)C(=O)NCC(=O)O)C(=O)O", "note": "[GSNO, S-nitroso-L-glutathione]", "values": [
      {"measurement": "growth of bacteria (E. coli) with coated catheter segments", "value": "inhibits growth of bacteria"}
    ]}
  ]
}
